According to patent US8048825B2, “Haloalkylsulfonanilide derivatives or salt thereof, herbicide comprising the derivatives as active ingredient, and use of the herbicide” (Nihon Nohyaku Co., Ltd., priority 2006, dated 2011):

Columns and labels:
Assay type in all cases: in vivo
Echinochloa crus-galli = experiment: Herbicidal effect on paddy field weeds of post-emergence stage (Post), Test Example 2; settings: one-leaf stage, 1000 g/ha as active ingredient, examined after 21 days
From the text: (§1) Criteria for herbicidal efficacy (growth inhibiting degree) and phytotoxicity. • 5 . . . 100% herbicidal effect, phytotoxicity. • 4 . . . 90%-99% herbicidal effect, phytotoxicity. • 3 . . . 70%-89% herbicidal effect, phytotoxicity. • 2 . . . 40%-69% herbicidal effect, phytotoxicity. • 1 . . . 1%-39% herbicidal effect, phytotoxicity. • 0 . . . 0% herbicidal effect, phytotoxicity.
(§2) 75 cm^2 plastic pots were filled with the soil (clay loam). Seeds of Scirpus juncoides and Echinochloa crus-galli, paddy weeds, were planted, and they were covered with 75 cm^3 of soil mixed with seeds of Lindernia procumbens and then filled with water depth of 5 cm and they were brought up in a greenhouse. When the test plants were at one-leaf stage, predetermined effective dosage (1000 g/ha as an active ingredient) of formulations comprising a compound of the present invention as an active ingredient was applied to the pot water. Then, they were brought up in a greenhouse and the herbicidal efficacy was examined after 21 days from the treatment by comparing with the result of an untreated group according to the criteria of Test Example 1. In the table, “-” means that the test was not performed.

Scirpus juncoides [1] = experiment: as above; settings: one-leaf stage, 1000 g/ha as active ingredient, examined after 21 days
From the text: as §1, §2

Scirpus juncoides [2] = experiment: Herbicidal efficacy on paddy field weeds of pre-emergence stage (Pre), Test Example 1; settings: 1000 g/ha as active ingredient, examined after 21 days
Protocol: (§3) 75 cm^2 plastic pots were filled with the soil (clay loam). Seeds of Scirpus juncoides, a paddy weed, were planted, and they were covered with 75 cm^3 of soil mixed with seeds of Lindernia procumbens and then filled with water depth of 5 cm. Next day, predetermined effective dosage (1000 g/ha as an active ingredient) of formulations comprising a compound of the present invention as an active ingredient which were prepared following Formulation Examples 1 to 4 was diluted with water and applied dropwise to the surface of the water. Then, they were brought up in a greenhouse and the herbicidal effect was examined after 21 days from the treatment by comparing with the result of an untreated group according to the following criteria. In the table, “-” means that the test was not performed.
as §1

Lindernia procumbens [3] = experiment: as above; settings: 1000 g/ha as active ingredient, examined after 21 days
Protocol: as §3, §1

Lindernia procumbens [4] = experiment: Herbicidal effect on paddy field weeds of post-emergence stage (Post), Test Example 2; settings: one-leaf stage, 1000 g/ha as active ingredient, examined after 21 days
From the text: as §1, §2

Structure (SMILES) | Echinochloa crus-galli post (herbicidal effect) (Echinochloa crus-galli) | Scirpus juncoides post (herbicidal effect) (Scirpus juncoides [1]) | Scirpus juncoides pre (herbicidal effect) (Scirpus juncoides [2]) | Lindernia procumbens pre (herbicidal effect) (Lindernia procumbens [3]) | Lindernia procumbens post (herbicidal effect) (Lindernia procumbens [4])
CCOC(=O)N(c1ccccc1CN1CCC(C(F)(F)F)(C(F)(F)F)OC1=O)S(=O)(=O)C(F)(F)F [Compound 1-340] | 4 (90%-99% herbicidal effect, phytotoxicity) | 4 (90%-99% herbicidal effect, phytotoxicity) | 4 (90%-99% herbicidal effect, phytotoxicity) | 5 (100% herbicidal effect, phytotoxicity) | –
CC1(C(F)(F)F)CCN(Cc2ccccc2NS(=O)(=O)C(F)(F)F)C(=O)O1 (stereo not drawn) [Compound 1-80] | 4 (90%-99% herbicidal effect, phytotoxicity) | 4 (90%-99% herbicidal effect, phytotoxicity) | 4 (90%-99% herbicidal effect, phytotoxicity) | 4 (90%-99% herbicidal effect, phytotoxicity) | –
CC1(c2ccccc2F)CCN(Cc2ccccc2NS(=O)(=O)C(F)(F)F)C(=O)O1 (racemic) [Compound 1-428] | – | 4 (90%-99% herbicidal effect, phytotoxicity) | 5 (100% herbicidal effect, phytotoxicity) | 5 (100% herbicidal effect, phytotoxicity) | 5 (100% herbicidal effect, phytotoxicity)
CC(C)COC(=O)N(c1ccccc1CN1CCC(C)(c2ccccc2Cl)OC1=O)S(=O)(=O)C(F)(F)F (stereo not drawn) [Compound 1-177] | – | 4 (90%-99% herbicidal effect, phytotoxicity) | 4 (90%-99% herbicidal effect, phytotoxicity) | 4 (90%-99% herbicidal effect, phytotoxicity) | 4 (90%-99% herbicidal effect, phytotoxicity)
COCN(c1ccccc1CN1CCC(c2ccccc2)(C2CC2)OC1=O)S(=O)(=O)C(F)(F)F (stereo not drawn) [Compound 1-191] | 4 (90%-99% herbicidal effect, phytotoxicity) | – | – | 4 (90%-99% herbicidal effect, phytotoxicity) | –
CCOC(=O)N(c1ccccc1CN1CCC(CC)(CC(C)C)OC1=O)S(=O)(=O)C(F)(F)F (stereo not drawn) [Compound 1-419] | – | 4 (90%-99% herbicidal effect, phytotoxicity) | 5 (100% herbicidal effect, phytotoxicity) | 5 (100% herbicidal effect, phytotoxicity) | 5 (100% herbicidal effect, phytotoxicity)
CC1(Cc2ccccc2F)CCN(Cc2ccccc2NS(=O)(=O)C(F)(F)F)C(=O)O1 (racemic) [Compound 1-461] | – | 4 (90%-99% herbicidal effect, phytotoxicity) | 5 (100% herbicidal effect, phytotoxicity) | 5 (100% herbicidal effect, phytotoxicity) | 5 (100% herbicidal effect, phytotoxicity)
CC(C)COC(=O)N(c1ccccc1CN1CCCCOC1=S)S(=O)(=O)C(F)(F)F [2-17] | 4 (90%-99% herbicidal effect, phytotoxicity) | 4 (90%-99% herbicidal effect, phytotoxicity) | 4 (90%-99% herbicidal effect, phytotoxicity) | – | –
O=C1OC(c2ccccc2F)CCN1Cc1ccccc1NS(=O)(=O)C(F)(F)F (stereo not drawn) [Compound 1-250] | – | 5 (100% herbicidal effect, phytotoxicity) | 5 (100% herbicidal effect, phytotoxicity) | 5 (100% herbicidal effect, phytotoxicity) | 5 (100% herbicidal effect, phytotoxicity)
O=C1OC(c2ccccc2C(F)(F)F)CCN1Cc1ccccc1NS(=O)(=O)C(F)(F)F (stereo not drawn) [Compound 1-294] | – | 4 (90%-99% herbicidal effect, phytotoxicity) | 4 (90%-99% herbicidal effect, phytotoxicity) | 5 (100% herbicidal effect, phytotoxicity) | 5 (100% herbicidal effect, phytotoxicity)
CC1(c2ccccc2)CCN(Cc2ccccc2NS(=O)(=O)C(F)(F)F)C(=O)O1 (stereo not drawn) [Compound 1-160] | – | 4 (90%-99% herbicidal effect, phytotoxicity) | 4 (90%-99% herbicidal effect, phytotoxicity) | 4 (90%-99% herbicidal effect, phytotoxicity) | 4 (90%-99% herbicidal effect, phytotoxicity)
O=C1OC(C(F)(F)F)(C(F)(F)F)CCN1Cc1ccccc1NS(=O)(=O)C(F)(F)F [Compound 1-338] | – | 4 (90%-99% herbicidal effect, phytotoxicity) | 4 (90%-99% herbicidal effect, phytotoxicity) | 4 (90%-99% herbicidal effect, phytotoxicity) | 5 (100% herbicidal effect, phytotoxicity)
O=C1OC(c2ccccc2)(C(F)(F)F)CCN1Cc1ccccc1NS(=O)(=O)C(F)(F)F (stereo not drawn) [Compound 1-228] | – | 4 (90%-99% herbicidal effect, phytotoxicity) | 5 (100% herbicidal effect, phytotoxicity) | 5 (100% herbicidal effect, phytotoxicity) | 5 (100% herbicidal effect, phytotoxicity)
CCOC(=O)N(c1ccccc1CN1CCC(c2ccccc2F)OC1=O)S(=O)(=O)C(F)(F)F (stereo not drawn) [Compound 1-252] | – | 4 (90%-99% herbicidal effect, phytotoxicity) | 4 (90%-99% herbicidal effect, phytotoxicity) | 5 (100% herbicidal effect, phytotoxicity) | 5 (100% herbicidal effect, phytotoxicity)
O=C1OC(c2ccccc2)(C2CC2)CCN1Cc1ccccc1NS(=O)(=O)C(F)(F)F (stereo not drawn) [Compound 1-183] | – | 4 (90%-99% herbicidal effect, phytotoxicity) | 4 (90%-99% herbicidal effect, phytotoxicity) | 4 (90%-99% herbicidal effect, phytotoxicity) | 4 (90%-99% herbicidal effect, phytotoxicity)
CCOC(=O)N(c1ccccc1CN1CCC(c2ccc(Cl)cc2)(C2CC2)OC1=O)S(=O)(=O)C(F)(F)F (stereo not drawn) [Compound 1-197] | – | 4 (90%-99% herbicidal effect, phytotoxicity) | 4 (90%-99% herbicidal effect, phytotoxicity) | 4 (90%-99% herbicidal effect, phytotoxicity) | 4 (90%-99% herbicidal effect, phytotoxicity)
CCC1(C(C)C)CCN(Cc2ccccc2N(C(=O)OCC(C)(C)C)S(=O)(=O)C(F)(F)F)C(=O)O1 (racemic) [Compound 1-456] | – | 4 (90%-99% herbicidal effect, phytotoxicity) | 5 (100% herbicidal effect, phytotoxicity) | 5 (100% herbicidal effect, phytotoxicity) | 5 (100% herbicidal effect, phytotoxicity)
CN(c1ccccc1CN1CC(C)(C)C(c2ccccc2)OC1=O)S(=O)(=O)C(F)(F)F (stereo not drawn) [Compound 1-268] | – | 4 (90%-99% herbicidal effect, phytotoxicity) | 4 (90%-99% herbicidal effect, phytotoxicity) | 5 (100% herbicidal effect, phytotoxicity) | 5 (100% herbicidal effect, phytotoxicity)
